According to ChEMBL document CHEMBL3880440, “Antagonists of the toll-like receptor 1/2 complex” (2014):
Calls of active or inactive are those of the source. The rule behind the calls is not given here.

Columns and labels:
Toll-like receptor 1/2 = Toll-like receptor 1/2 (Mus musculus, UniProt Q9EPQ1+Q9QUN7); assay: (§1) Antagonist activity at TLR1/2 in mouse RAW264.7 cells assessed as inhibition of Pam3CSK4-induced receptor activation by measuring NO production after 24 hrs; format: cell-based
[1] = target: T1, Toll-like receptor 1/2 (Mus musculus) (UniProt Q9QUN7+Q9EPQ1); assay: Antagonist activity at TLR1/2 in mouse RAW264.7 cells assessed as inhibition of Pam3CSK4-induced receptor activation by measuring NO production at 3 uM after 24 hrs; format: cell-based
[2] = Cytotoxicity against mouse RAW264.7 cells assessed as decrease in cell viability at 3 uM by MTT assay; format: cell-based; details: raw264.7, 3 µM
[3] = target: T1, Toll-like receptor 1/2 (Mus musculus); assay: as §1; format: cell-based
[4] = Cytotoxicity against mouse RAW264.7 cells assessed as decrease in cell viability at 8 uM by MTT assay; format: cell-based; details: raw264.7, 8 µM
RAW264.7 [5] = assay: Inhibition of Pam3CSK4-induced IL-1beta production in mouse RAW264.7 cells at 8 uM after 24 hrs by ELISA; format: functional, cell-based
RAW264.7 [6] = assay: Inhibition of Pam3CSK4-induced TNF-alpha production in mouse RAW264.7 cells at 8 uM after 24 hrs by ELISA; format: functional, cell-based
[7] = target: Toll-like receptor 1/2 (Homo sapiens) (UniProt O60603+Q15399); assay: Antagonist activity at TLR1/2 in primary microglial cells (unknown origin) assessed as reduction in Pam3CSK4-induced IL-1beta mRNA expression level after 2 hrs; format: cell-based
[8] = Antiinflammatory activity in hippocampus (unknown origin) assessed as inhibition of Pam3CSK4-induced IL-1beta mRNA expression level at 5 to 50 ng coadministered with Pam3CSK4 via intra-cisterna magna measured after 2 hrs by RT-PCR analysis; format: functional
[9] = Antiinflammatory activity in hippocampus (unknown origin) assessed as inhibition of Pam3CSK4-induced TNF-alpha mRNA expression level at 5 to 50 ng coadministered with Pam3CSK4 via intra-cisterna magna measured after 2 hrs by RT-PCR analysis; format: functional
[10] = Antiinflammatory activity in hippocampus (unknown origin) assessed as inhibition of Pam3CSK4-induced IL-6 mRNA expression level at 5 to 50 ng coadministered with Pam3CSK4 via intra-cisterna magna measured after 2 hrs by RT-PCR analysis; format: functional

Sequence of Toll-like receptor 1/2 (Q9QUN7 whole entry): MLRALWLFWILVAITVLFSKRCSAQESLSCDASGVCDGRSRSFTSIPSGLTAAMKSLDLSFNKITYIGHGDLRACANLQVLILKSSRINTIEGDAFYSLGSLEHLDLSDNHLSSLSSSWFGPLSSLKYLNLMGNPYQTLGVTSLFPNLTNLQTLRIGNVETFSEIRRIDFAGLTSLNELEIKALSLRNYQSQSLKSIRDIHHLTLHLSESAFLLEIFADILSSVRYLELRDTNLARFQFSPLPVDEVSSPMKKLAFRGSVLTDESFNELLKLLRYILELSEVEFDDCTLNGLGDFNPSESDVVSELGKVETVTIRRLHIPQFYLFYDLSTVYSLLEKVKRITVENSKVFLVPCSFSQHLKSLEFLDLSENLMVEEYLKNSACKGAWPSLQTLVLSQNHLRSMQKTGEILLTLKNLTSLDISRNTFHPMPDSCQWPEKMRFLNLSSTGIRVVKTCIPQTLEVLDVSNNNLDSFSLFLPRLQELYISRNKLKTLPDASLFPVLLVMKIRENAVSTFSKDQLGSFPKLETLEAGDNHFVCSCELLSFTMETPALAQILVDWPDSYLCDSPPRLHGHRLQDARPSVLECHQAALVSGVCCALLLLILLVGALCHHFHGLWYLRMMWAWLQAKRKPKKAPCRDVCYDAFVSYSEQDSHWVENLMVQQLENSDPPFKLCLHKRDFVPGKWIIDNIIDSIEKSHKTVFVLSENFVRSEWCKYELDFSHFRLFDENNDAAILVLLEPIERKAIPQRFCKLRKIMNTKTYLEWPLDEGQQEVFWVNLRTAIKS
Sequence of Toll-like receptor 1/2 (Q9EPQ1 whole entry): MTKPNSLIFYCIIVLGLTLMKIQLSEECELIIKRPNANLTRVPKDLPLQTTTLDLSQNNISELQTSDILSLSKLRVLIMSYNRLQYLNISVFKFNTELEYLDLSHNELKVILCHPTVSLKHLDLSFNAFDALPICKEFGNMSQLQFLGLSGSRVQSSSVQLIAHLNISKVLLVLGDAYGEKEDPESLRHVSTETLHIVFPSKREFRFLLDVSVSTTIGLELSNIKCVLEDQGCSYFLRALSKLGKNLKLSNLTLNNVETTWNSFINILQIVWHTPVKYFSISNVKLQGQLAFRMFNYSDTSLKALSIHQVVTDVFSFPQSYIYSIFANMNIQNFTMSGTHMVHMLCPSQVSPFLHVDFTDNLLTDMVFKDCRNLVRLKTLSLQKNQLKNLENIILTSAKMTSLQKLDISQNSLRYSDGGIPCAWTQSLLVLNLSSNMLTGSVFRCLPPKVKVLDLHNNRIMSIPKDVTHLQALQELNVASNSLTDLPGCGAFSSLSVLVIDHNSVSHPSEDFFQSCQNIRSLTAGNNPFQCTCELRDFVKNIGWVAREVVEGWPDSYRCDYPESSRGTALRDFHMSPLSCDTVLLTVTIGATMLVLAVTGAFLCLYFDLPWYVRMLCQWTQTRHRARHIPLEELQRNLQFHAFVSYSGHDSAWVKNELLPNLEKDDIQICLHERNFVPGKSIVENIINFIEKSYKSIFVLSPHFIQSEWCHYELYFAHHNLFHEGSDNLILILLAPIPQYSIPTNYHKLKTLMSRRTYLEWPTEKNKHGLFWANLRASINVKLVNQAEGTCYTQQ

| SMILES | IC50 (Toll-like receptor 1/2) [nM] | inhibition [1] [%] | Activity [2] | other results |
| --- | --- | --- | --- | --- |
| CC(=O)Oc1cc2cccc(OC(C)=O)c(=O)c2c(O)c1OC(C)=O | 1420 | – | – | – |
| O=C(/C=C/c1ccc(O)c(O)c1)c1ccccc1O | – | > 70 | Non-Toxic | – |
| C=C(C)[C@H]1Cc2c(ccc3c2O[C@@H]2COc4cc(OC)c(OC)cc4[C@@H]2C3=O)O1 [ROTENONE] | – | > 70 | Non-Toxic | – |
| COc1cc2c(c(OC)c1OC)C(=O)C1(OC)C=CC2C2C(=O)OC(=O)C21 (stereo not given) | 74600 | – | – | – |
| O=C(O)c1cc(O)c(=O)c2c(O)c(O)ccc2c1 [7-DESHYDROXYPYROGALLIN-4-CARBOXYLIC ACID] | 16500 | – | – | – |
| O=[N+]([O-])c1cc(Cl)cc2c1nc(NCCO)c1ccccc12 | – | > 70 | Non-Toxic | – |
| CC(=O)/C=C/Nc1ccccc1O | – | > 70 | Non-Toxic | – |
| CC(=O)Oc1cc2cccc(OC(C)=O)c(=O)c2c(OC(C)=O)c1OC(C)=O | 2350 | – | – | – |
| CCCCNC(=O)c1cc(O)c(=O)c2c(O)c(O)c(OC)cc2c1 | 1260 | – | – | – |
| COc1cc2cc(C(=O)OC(C)C)cc(O)c(=O)c2c(O)c1O | 2470 | – | – | – |
| CN1CCN(C(=O)/C=C/c2ccc([N+](=O)[O-])o2)CC1 | – | > 70 | Non-Toxic | – |
| O=c1c(O)cccc2ccc(O)c(O)c12 | 2250 | – | – | – |
| CC(=O)Oc1cc2cccc(O)c(=O)c2c(O)c1O | 4830 | – | – | – |
| CCCCCCCCOC(=O)c1cc(O)c(=O)c2c(O)c(O)c(OC)cc2c1 | 720 | – | – | – |
| CCOC(=O)c1cc(O)c(=O)c2c(O)c(O)c(OC)cc2c1 | 2830 | – | – | – |
| O=c1c(O)cccc2cc(F)c(O)c(O)c12 | 22700 | – | – | – |
| COC(=O)c1cc(O)c(=O)c2c(O)c(O)ccc2c1 [METHYL 7-DESHYDROXYPYROGALLIN-4-CARBOXYLATE] | 9010 | – | – | – |
| O=C(Nc1ccc(Cl)c(Cl)c1)Nc1ccccc1O | – | > 70 | Non-Toxic | – |
| COc1cc2cccc(OC)c(=O)c2c(O)c1OC | 11700 | – | – | – |
| CCCCCCCCCCOC(=O)c1cc(O)c(=O)c2c(O)c(O)c(OC)cc2c1 | 1010 | – | – | – |
| Oc1ccc(/N=C/c2c(O)ccc3ccccc23)cc1 | – | > 70 | Non-Toxic | – |
| Cc1cc(O)c(O)c2c(=O)c(O)cccc12 | 3130 | – | – | – |
| CC(=O)Oc1cc2c(c(OC(C)=O)c1OC(C)=O)C(=O)C1(OC(C)=O)C=CC2C2C(=O)OC(=O)C21 (stereo not given) | 14800 | – | – | – |
| COc1cccc(NC(S)=Nc2ccc(O)cc2)c1 | – | > 70 | Non-Toxic | – |
| CCCCCCOC(=O)c1cc(O)c(=O)c2c(O)c(O)c(OC)cc2c1 | – | > 70 | – | inhibition [3]: Dose-dependent effect; Activity [4]: Non-Toxic; inhibition (RAW264.7 [5]): Active; inhibition (RAW264.7 [6]): Active; inhibition [7]: Dose-dependent effect; inhibition [8]: Active; inhibition [9]: Active; inhibition [10]: Active |
| CCCCCCCCCCCCCCOC(=O)c1cc(O)c(=O)c2c(O)c(O)c(OC)cc2c1 | 3240 | – | – | – |
| CCCCOC(=O)c1cc(O)c(=O)c2c(O)c(O)c(OC)cc2c1 | 2830 | – | – | – |
| O=c1c(O)cccc2cc(O)c(O)c(O)c12 [PURPUROGALLIN] | – | > 70 | Non-Toxic | – |
